We go through 20 compounds from US20260125346A1, “Isoquinolinone Derivatives and 4H-Quinolizinone Derivatives and Pharmaceutical Compositions Thereof for the Treatment of Disease” (BeOne Medicines I GmbH, priority 2023, published 2026).

For experiment [1], the target named is PI3Kα (p110[H1047R]/p85) kinase (Homo sapiens, UniProt P42336, H1047R). In words: PI3Kα (p110[H1047R]/p85) kinase ADP-Glo Assay. The experiment is classed as biochemical. The settings on record: 25 uM ATP; for selectivity: WT/H1047R: ADP-Glo Assay IC50 ratio. The method in brief: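 PI3Kα H1047R/p85 pre-incubated 30 min at room temperature with PI(4,5)P2:PS substrate ([…]) and compound ([…]) in HEPES pH 7.5 buffer with MgCl2; ATP ([…]) then added for 120 min. ADP quantified by ADP-Glo luminescence; IC50 from four-parameter logistic fit.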
Chain of PI3Kα (p110[H1047R]/p85) kinase (P42336 whole entry H1047R): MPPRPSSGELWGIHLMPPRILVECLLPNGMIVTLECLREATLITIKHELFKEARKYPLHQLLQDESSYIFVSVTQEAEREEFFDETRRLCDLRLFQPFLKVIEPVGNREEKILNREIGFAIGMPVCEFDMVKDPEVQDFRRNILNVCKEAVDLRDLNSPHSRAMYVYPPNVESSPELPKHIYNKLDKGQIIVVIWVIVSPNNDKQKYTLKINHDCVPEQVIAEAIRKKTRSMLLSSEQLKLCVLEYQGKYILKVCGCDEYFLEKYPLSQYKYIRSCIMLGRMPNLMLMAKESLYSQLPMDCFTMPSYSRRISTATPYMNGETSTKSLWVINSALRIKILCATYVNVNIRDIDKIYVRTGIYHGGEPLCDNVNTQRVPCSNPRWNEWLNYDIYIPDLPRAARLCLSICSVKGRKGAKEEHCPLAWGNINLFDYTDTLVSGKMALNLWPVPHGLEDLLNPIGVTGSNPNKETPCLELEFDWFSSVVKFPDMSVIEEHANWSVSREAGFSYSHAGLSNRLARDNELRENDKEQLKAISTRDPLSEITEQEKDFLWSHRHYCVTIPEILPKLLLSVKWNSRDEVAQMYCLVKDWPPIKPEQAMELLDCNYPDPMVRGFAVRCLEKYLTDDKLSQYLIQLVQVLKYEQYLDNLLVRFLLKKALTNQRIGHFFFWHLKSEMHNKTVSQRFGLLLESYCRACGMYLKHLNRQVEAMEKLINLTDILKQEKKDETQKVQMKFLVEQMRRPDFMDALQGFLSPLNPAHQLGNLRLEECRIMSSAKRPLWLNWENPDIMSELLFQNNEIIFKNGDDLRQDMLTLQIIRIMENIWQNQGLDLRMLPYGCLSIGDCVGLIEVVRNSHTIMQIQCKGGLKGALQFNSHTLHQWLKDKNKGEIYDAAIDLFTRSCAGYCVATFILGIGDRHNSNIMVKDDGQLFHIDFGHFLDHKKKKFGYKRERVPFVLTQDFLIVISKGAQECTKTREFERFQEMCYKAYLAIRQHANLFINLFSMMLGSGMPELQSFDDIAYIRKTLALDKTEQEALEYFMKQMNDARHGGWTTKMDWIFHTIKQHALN
Chain of PI3Kα (p110[H1047R]/p85) kinase (P27986 whole entry partner): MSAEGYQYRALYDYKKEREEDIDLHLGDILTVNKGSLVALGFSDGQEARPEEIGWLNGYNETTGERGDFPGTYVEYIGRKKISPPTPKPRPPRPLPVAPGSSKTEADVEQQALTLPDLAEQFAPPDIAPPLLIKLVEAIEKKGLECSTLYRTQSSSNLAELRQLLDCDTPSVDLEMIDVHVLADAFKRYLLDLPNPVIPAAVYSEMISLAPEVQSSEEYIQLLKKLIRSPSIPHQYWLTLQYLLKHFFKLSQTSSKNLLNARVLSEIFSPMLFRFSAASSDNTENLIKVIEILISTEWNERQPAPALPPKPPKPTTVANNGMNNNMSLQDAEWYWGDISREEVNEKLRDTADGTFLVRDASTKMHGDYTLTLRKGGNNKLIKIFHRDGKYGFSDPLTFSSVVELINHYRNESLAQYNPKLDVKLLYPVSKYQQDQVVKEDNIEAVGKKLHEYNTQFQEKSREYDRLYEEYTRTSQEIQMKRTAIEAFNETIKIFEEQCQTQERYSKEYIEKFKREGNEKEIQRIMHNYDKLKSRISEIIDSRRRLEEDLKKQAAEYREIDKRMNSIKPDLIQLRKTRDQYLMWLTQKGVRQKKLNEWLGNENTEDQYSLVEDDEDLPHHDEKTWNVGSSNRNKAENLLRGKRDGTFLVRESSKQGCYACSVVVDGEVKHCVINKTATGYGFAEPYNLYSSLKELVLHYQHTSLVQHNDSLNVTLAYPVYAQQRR

For another experiment, the system named is WT cell line SK-BR-3. Put plainly: Cell Proliferation Assay (CellTiter-Glo), SK-BR-3. Format: cell-based. The settings on record: Homo sapiens, 72 h; SK-BR-3, 3 days treatment. On the procedure: The SK-BR-3 (ATCC, HTB-30) cell line was obtained from the American Type Culture Collection. Cells were maintained in McCoy' 5A medium (Gibco, REF #16600108) supplemented with 10% Fetal Bovine Serum. Cultures were maintained in a humidified incubator at 37° C. under 5% CO2/95% air.
Cell Proliferation Assay. PI3Kα H1047R mutated cell line T-47D cells and WT cell line SK-BR-3 were seeded at a density of 3×10^3 cells per well in 96 well plate (Xinyou Biotechnology, 062096) in 95 μL of culture medium, overnight. Compounds dissolved in 10 mM stock solutions in DMSO were serially diluted 1:3 in DMSO to generate a 9-point dilution series and plated using an INTEGRA ASSIST Plus pipetting robot. A 20× intermediate compound dilution plate in RPMI1640 medium (200 M starting compound concentration in 2% DMSO) was then prepared. Five μL of intermediate serially diluted compounds were added to the cell plate to final concentrations ranging from […] to 1 nM in 0.1% DMSO. 0.1% DMSO alone was used to establish the maximum signal and medium without cells was for minimum signal. After 3 days treatment, equilibrated the plate and its contents at room temperature for approximately 30 minutes. Added 30 μL CellTiter-Glo® Reagent (Promega, REF #G7571) to each well. Then mixed contents for 5 min on plate shaker to induce cell lysis. Incubated at room temperature for 10 minutes to stabilize luminescent signal. The plates were read on PHERAstar FSX Microplate reader using standard luminescence settings.
Relative IC50 values were determined using luminescence units by calculating percent inhibition with respect to the in-plate “MIN” (medium only) and “MAX” (0.1% DMSO) controls. The data were analyzed using a 4-parameter nonlinear logistic equation (four-parameter logistic concentration-response curve): Y=bottom+[(top−bottom)/1+(X/IC50) slope] • where Y=% inhibition, X=concentration of inhibitor, bottom=minimum value of y attained by curve-fit, top=maximum value of y attained by curve-fit and slope=steepness of curve at the IC50.

The structures appear in SMILES notation. Bounds are passed on as bounds.

As for `Cc1cc(C(C)Nc2ccccc2C(=O)O)c2cc(-c3ccc(C(F)(F)F)cc3)n(C)c(=O)c2c1` (stereo not drawn) [Example 49, 2-((1-(2,7-dimethyl-1-oxo-3-(4-(trifluoromethyl)phenyl)-1,2-dihydroisoquinolin-5-yl)ethyl)amino)benzoic acid], the values for the IC50 (in experiment [1]; in the experiment with WT cell line SK-BR-3) were 457 nM and more than 10000 nM, respectively. In addition, the “selectivity: WT/H1047R” value in experiment [1] is listed as 20.8.
Taken in the same sequence, the figures for `Cc1cc(C(C)Nc2ccccc2C(=O)O)c2cc(-c3cccc(C(F)(F)F)c3)n(C)c(=O)c2c1` (stereo not drawn) [Example 50, 2-((1-(2,7-dimethyl-1-oxo-3-(3-(trifluoromethyl)phenyl)-1,2-dihydroisoquinolin-5-yl)ethyl)amino)benzoic acid] were 376 nM, more than 10000 nM and 27.6.
As for `Cc1cc(C(C)Nc2ccccc2C(=O)O)c2cc(-c3ccc(C(C)(C)O)cc3)n(C)c(=O)c2c1` (stereo not drawn) [Example 51, 2-((1-(3-(4-(2-hydroxypropan-2-yl)phenyl)-2,7-dimethyl-1-oxo-1,2-dihydroisoquinolin-5-yl)ethyl)amino)benzoic acid], in experiment [1], the IC50 stood at 247 nM and the “selectivity: WT/H1047R” value is listed as 42.1. Further, in the experiment with WT cell line SK-BR-3, the IC50 is more than 10000 nM.
On to `CC#Cc1ccc(-c2cc3c(C(C)Nc4ccccc4C(=O)O)cc(C)cc3c(=O)n2C)cc1` (stereo not drawn) [Example 52, 2-((1-(2,7-dimethyl-1-oxo-3-(4-(prop-1-yn-1-yl)phenyl)-1,2-dihydroisoquinolin-5-yl)ethyl)amino)benzoic acid], for which, in experiment [1], the IC50 was found to be 375 nM and the “selectivity: WT/H1047R” value is recorded as 25.2. The IC50 in the experiment with WT cell line SK-BR-3 was more than 10000 nM.
In the same order, the values of `Cc1cc(C(C)Nc2ccccc2C(=O)O)c2cc(-c3ccc4c(c3)C3CC3O4)n(C)c(=O)c2c1` (stereo not drawn) [Example 53, 2-((1-(3-(1a,6b-dihydro-1H-cyclopropa[b]benzofuran-5-yl)-2,7-dimethyl-1-oxo-1,2-dihydroisoquinolin-5-yl)ethyl)amino)benzoic acid] are 261 nM, 18.5 and more than 10000 nM.
Consider `Cc1cc(C(C)Nc2ccccc2C(=O)O)c2cc(-c3ccc(C(C)(C)O)nc3)n(C)c(=O)c2c1` (stereo not drawn) [Example 55, 2-((1-(3-(6-(2-hydroxypropan-2-yl)pyridin-3-yl)-2,7-dimethyl-1-oxo-1,2-dihydroisoquinolin-5-yl)ethyl)amino)benzoic acid], for which, in experiment [1], the IC50 worked out at 725 nM and the “selectivity: WT/H1047R” value was determined as 35.9. Moreover, the IC50 in the experiment on WT cell line SK-BR-3 is more than 10000 nM.
Taken in the same sequence, the figures for `Cc1cc([C@@H](C)Nc2ccccc2C(=O)O)c2cc(-c3ccc(C(C)(C)O)nc3)n(C)c(=O)c2c1` [Example 56, (R)-2-((1-(3-(6-(2-hydroxypropan-2-yl)pyridin-3-yl)-2,7-dimethyl-1-oxo-1,2-dihydroisoquinolin-5-yl)ethyl)amino)benzoic acid] were 1050 nM, 16.3 and more than 10000 nM.
Regarding `Cc1cc([C@H](C)Nc2ccccc2C(=O)O)c2cc(-c3ccc(C(C)(C)O)nc3)n(C)c(=O)c2c1` [Example 57, (S)-2-((1-(3-(6-(2-hydroxypropan-2-yl)pyridin-3-yl)-2,7-dimethyl-1-oxo-1,2-dihydroisoquinolin-5-yl)ethyl)amino)benzoic acid], the half-maximal inhibitory concentration (IC50) in experiment [1] was more than 100000 nM; in the experiment with WT cell line SK-BR-3 it was more than 10000 nM. Moreover, in experiment [1], the “selectivity: WT/H1047R” value is less than 0.9.
`COc1ncc(-c2cc3c(C(C)Nc4ccccc4C(=O)O)cc(C)cc3c(=O)n2C)cc1F` (stereo not drawn) [Example 58, 2-((1-(3-(5-fluoro-6-methoxypyridin-3-yl)-2,7-dimethyl-1-oxo-1,2-dihydroisoquinolin-5-yl)ethyl)amino)benzoic acid]: in experiment [1], half-maximal inhibition (IC50) required 336 nM and the “selectivity: WT/H1047R” value turned out to be 29.7. The same compound displayed an IC50 with WT cell line SK-BR-3 of more than 10000 nM.
On to `COc1ncc(-c2cc3c([C@@H](C)Nc4ccccc4C(=O)O)cc(C)cc3c(=O)n2C)cc1F` [Example 59, (R)-2-((1-(3-(5-fluoro-6-methoxypyridin-3-yl)-2,7-dimethyl-1-oxo-1,2-dihydroisoquinolin-5-yl)ethyl)amino)benzoic acid], for which the IC50 is 281 nM in experiment [1] and more than 10000 nM in the experiment with WT cell line SK-BR-3. Further, the “selectivity: WT/H1047R” value in experiment [1] turned out to be 15.3.
For `Cc1cc(C(C)Nc2ccccc2C(=O)O)c2cc(-c3cncnc3)n(C)c(=O)c2c1` (stereo not drawn) [Example 61, 2-((1-(2,7-dimethyl-1-oxo-3-(pyrimidin-5-yl)-1,2-dihydroisoquinolin-5-yl)ethyl)amino)benzoic acid], in experiment [1], the IC50 was determined as 790 nM and the “selectivity: WT/H1047R” value is 24.6. This compound also displayed an IC50 in the experiment on WT cell line SK-BR-3 of more than 10000 nM.
In the same order, the values of `Cc1cc(C(C)Nc2ccccc2C(=O)O)c2cc(-c3ccc(C4(O)CC4)cc3)n(C)c(=O)c2c1` (stereo not drawn) [Example 62, 2-((1-(3-(4-(1-hydroxycyclopropyl)phenyl)-2,7-dimethyl-1-oxo-1,2-dihydroisoquinolin-5-yl)ethyl)amino)benzoic acid] are 230 nM, 20.6 and more than 10000 nM.
Consider `Cc1cc(C(C)Nc2ccccc2C(=O)O)c2cc(-c3ccc(F)cc3)n(CC#N)c(=O)c2c1` (stereo not drawn) [Example 63, 2-((1-(2-(cyanomethyl)-3-(4-fluorophenyl)-7-methyl-1-oxo-1,2-dihydroisoquinolin-5-yl)ethyl)amino)benzoic acid], for which the IC50 in experiment [1] was 92 nM; with WT cell line SK-BR-3, more than 10000 nM. For the same compound, the “selectivity: WT/H1047R” value in experiment [1] came to 66.8.
In the same order, the values of `Cc1cc([C@@H](C)Nc2ccccc2C(=O)O)c2cc(-c3ccc(F)cc3)n(CC#N)c(=O)c2c1` [Example 64, (R)-2-((1-(2-(cyanomethyl)-3-(4-fluorophenyl)-7-methyl-1-oxo-1,2-dihydroisoquinolin-5-yl)ethyl)amino)benzoic acid] are 113 nM, more than 10000 nM and 21.9.
In the same order, the values of `Cc1cc(C(C)Nc2ccccc2C(=O)O)c2cc(-c3cnc(C(C)(C)O)nc3)n(C)c(=O)c2c1` (stereo not drawn) [Example 66, 2-((1-(3-(2-(2-hydroxypropan-2-yl)pyrimidin-5-yl)-2,7-dimethyl-1-oxo-1,2-dihydroisoquinolin-5-yl)ethyl)amino)benzoic acid] are 1110 nM, more than 10000 nM and 19.3.
Taken in the same sequence, the figures for `Cc1cc([C@@H](C)Nc2ccccc2C(=O)O)c2cc(-c3cnc(C(C)(C)O)nc3)n(C)c(=O)c2c1` [Example 67, (R)-2-((1-(3-(2-(2-hydroxypropan-2-yl)pyrimidin-5-yl)-2,7-dimethyl-1-oxo-1,2-dihydroisoquinolin-5-yl)ethyl)amino)benzoic acid] were 1210 nM, more than 10000 nM and 11.2.
In the case of `Cc1cc(C(C)Nc2ccccc2C(=O)O)c2cc(-c3ccc(F)cc3)n(C3CCOC3)c(=O)c2c1` (stereo not drawn) [Example 69, 2-((1-(3-(4-fluorophenyl)-7-methyl-1-oxo-2-(tetrahydrofuran-3-yl)-1,2-dihydroisoquinolin-5-yl)ethyl)amino)benzoic acid], the IC50 in experiment [1] was 416 nM; with WT cell line SK-BR-3, more than 10000 nM. In experiment [1], the “selectivity: WT/H1047R” value is given as 45.3.
Taken in the same sequence, the figures for `Cc1cc(C(C)Nc2ccccc2C(=O)O)c2cc(-c3ccc4c(c3)CN(C)C4=O)n(C)c(=O)c2c1` (stereo not drawn) [Example 70, 2-((1-(2,7-dimethyl-3-(2-methyl-1-oxoisoindolin-5-yl)-1-oxo-1,2-dihydroisoquinolin-5-yl)ethyl)amino)benzoic acid] were 872 nM, more than 10000 nM and 24.2.
In the same order, the values of `Cc1cc(C(C)Nc2ccccc2C(=O)O)c2cc(-c3ccc(F)cc3)n(-c3nccs3)c(=O)c2c1` (stereo not drawn) [Example 71, 2-((1-(3-(4-fluorophenyl)-7-methyl-1-oxo-2-(thiazol-2-yl)-1,2-dihydroisoquinolin-5-yl)ethyl)amino)benzoic acid] are 312 nM, more than 10000 nM and 45.7.
In the same order, the values of `Cc1cc(C(C)Nc2ccccc2C(=O)O)c2cc(-c3ccc(N4CCC(C)(O)CC4)nc3)n(C)c(=O)c2c1` (stereo not drawn) [Example 72, 2-((1-(3-(6-(4-hydroxy-4-methylpiperidin-1-yl)pyridin-3-yl)-2,7-dimethyl-1-oxo-1,2-dihydroisoquinolin-5-yl)ethyl)amino)benzoic acid] are 1070 nM, more than 10000 nM and 19.2.

As a reminder, the IC50 is the concentration that inhibits the measured activity by half. Read a high IC50 as weaker potency.
